From the CheMixHub viscosity set
Where “and” joins values, the source holds several entries; their conditions need not be identical. Equal entries are not always repeated.

Assay: xn = mol fraction of the nth substance listed

CCCCN + CC(C)(C)O
viscosity [mPa·s], 101 kPa
Conditions	x2 = 0.1	x2 = 0.2004	x2 = 0.2999	x2 = 0.4	x2 = 0.4996	x2 = 0.6	x2 = 0.7	x2 = 0.8	x2 = 0.9004	x2 = 0.95
303.15 K	0.5062	0.5833	0.681	0.804	0.9662	1.177	1.466	1.866	2.458	2.869
308.15 K	0.4732	0.541	0.6257	0.733	0.8694	1.046	1.279	1.591	2.021	2.3
313.15 K	0.4425	0.5022	0.5783	0.6716	0.7865	0.9346	1.119	1.363	1.68	1.874
318.15 K	0.4156	0.4687	0.5345	0.6159	0.7149	0.8377	0.9897	1.183	1.417	1.553
323.15 K	0.3905	0.4378	0.4957	0.5666	0.6519	0.7551	0.8801	1.031	1.21	1.309

[I-].[K+] + O
310.15 K, 101 kPa
Conditions	viscosity [mPa·s]
x1 = 0.000916	0.6942
x1 = 0.001822	0.6976
x1 = 0.001827	0.7047
x1 = 0.002695	0.7079
x1 = 0.003679	0.7155
x1 = 0.005197	0.7273
x1 = 0.005988	0.7335

O=C(O)C(Cl)(Cl)Cl + CCCCCOC(C)=O
323.15 K, 101 kPa
Conditions	viscosity [mPa·s]
x2 = 0.2135	3.573
x2 = 0.4325	2.146
x2 = 0.6234	1.358
x2 = 0.8421	0.807

CCCCN + CCOC(C)=O
303.15 K, 101 kPa
Conditions	viscosity [mPa·s]
x1 = 0.1573	0.4484
x1 = 0.2361	0.4671
x1 = 0.312	0.4741
x1 = 0.4217	0.4759
x1 = 0.5671	0.476
x1 = 0.6505	0.4772
x1 = 0.7907	0.4779
x1 = 0.8803	0.4928

O=C([O-])CC(=O)[O-].[Na+].[Na+] + O
viscosity, 101 kPa
Conditions	x1 = 9e-05	x1 = 0.00018	x1 = 0.00027	x1 = 0.00036
298.15 K	0.8932 mPa·s and 0.8932 mPa·s	0.8959 mPa·s and 0.8959 mPa·s	0.8987 mPa·s and 0.8987 mPa·s	0.9014 mPa·s and 0.9014 mPa·s
308.15 K	0.7222 mPa·s and 0.7222 mPa·s	0.7237 mPa·s and 0.7237 mPa·s	0.7253 mPa·s and 0.7253 mPa·s	0.7279 mPa·s and 0.7279 mPa·s
318.15 K	0.598 mPa·s and 0.598 mPa·s	0.6007 mPa·s and 0.6007 mPa·s	0.6021 mPa·s and 0.6021 mPa·s	0.6048 mPa·s and 0.6048 mPa·s

CCCCN + CCCCCCCCCCO
viscosity [mPa·s], 101.33 kPa
Conditions	x1 = 0.1009	x1 = 0.1875	x1 = 0.2926	x1 = 0.4082	x1 = 0.4885	x1 = 0.5888	x1 = 0.7198	x1 = 0.8119	x1 = 0.9029
303.15 K	7.619	6.568	5.323	4.051	3.232	2.336	1.398	0.9303	0.6273
313.15 K	5.926	5.059	4.058	3.072	2.462	1.813	1.151	0.8181	0.5744

CC(=O)[O-].CCn1cc[n+](CC)c1 + O
viscosity [mPa·s], 100 kPa
Conditions	x2 = 0.09432	x2 = 0.2079	x2 = 0.3498	x2 = 0.453	x2 = 0.5329
298.15 K	129.4	120.3	79.4	62.7	50.4
323.15 K	38.2	36.6	26.3	21.5	17.9

O=c1[nH]cc(F)c(=O)[nH]1 + O
298.15 K, 101.3 kPa
Conditions	viscosity [mPa·s]
x1 = 3.46e-05	0.8891
x1 = 9.06e-05	0.8892
x1 = 0.000191	0.8901
x1 = 0.000303	0.8905
x1 = 0.000519	0.8917
x1 = 0.000754	0.8926
x1 = 0.000864	0.8933
x1 = 0.00108	0.8946

CCCC(=O)OCC(COC(=O)CCC)OC(=O)CCC + CCCCCCO
viscosity [mPa·s], 101.33 kPa
Conditions	x1 = 0.1	x1 = 0.2	x1 = 0.3	x1 = 0.4	x1 = 0.5	x1 = 0.6	x1 = 0.7	x1 = 0.8	x1 = 0.9
298 K	4	4.09	4.3	4.65	5.05	5.56	6.15	6.84	7.68
303 K	3.47	3.54	3.72	4	4.36	4.8	5.27	5.86	6.54
308 K	3.02	3.08	3.26	3.49	3.79	4.15	4.57	5.07	5.63
313 K	2.65	2.71	2.85	3.07	3.33	3.64	4	4.42	4.9

CCCCN + CCCCCCC
303.15 K, 101.33 kPa
Conditions	viscosity [mPa·s]
x1 = 0.1262	0.355
x1 = 0.243	0.345
x1 = 0.3214	0.358
x1 = 0.4018	0.358
x1 = 0.4973	0.362
x1 = 0.6195	0.381
x1 = 0.7804	0.434
x1 = 0.8723	0.462

CCCCN + CCCCCC
viscosity [mPa·s]
Conditions	298.15 K	303.15 K	313.15 K
101.3 kPa, x2 = 0.0995	0.4331	–	0.3573
101.3 kPa, x2 = 0.2009	0.4017	–	0.3331
101.3 kPa, x2 = 0.2987	0.3782	–	0.3159
101.3 kPa, x2 = 0.4003	0.3564	–	0.3002
101.3 kPa, x2 = 0.4987	0.3397	–	0.2875
101.3 kPa, x2 = 0.5995	0.3249	–	0.2767
101.3 kPa, x2 = 0.7021	0.3127	–	0.2675
101.3 kPa, x2 = 0.8015	0.3036	–	0.2608
101.3 kPa, x2 = 0.8999	0.2974	–	0.2562
101.33 kPa, x1 = 0.1342	–	0.266	–
101.33 kPa, x1 = 0.2674	–	0.262	–
101.33 kPa, x1 = 0.4006	–	0.245	–
101.33 kPa, x1 = 0.5268	–	0.252	–
101.33 kPa, x1 = 0.6349	–	0.281	–
101.33 kPa, x1 = 0.7491	–	0.318	–
101.33 kPa, x1 = 0.8215	–	0.368	–
101.33 kPa, x1 = 0.9178	–	0.445	–

O=C(O)C(Cl)(Cl)Cl + CC(C)=O
viscosity [mPa·s], 101 kPa
Conditions	298.15 K	308.15 K	318.15 K
x1 = 0.0484	0.368	–	–
x1 = 0.1316	0.4855	–	–
x1 = 0.165	–	0.5039	0.453
x1 = 0.2517	–	0.6893	0.6078
x1 = 0.2543	0.8156	–	–
x1 = 0.3485	–	1.01	0.8833
x1 = 0.3826	1.433	–	–
x1 = 0.4411	–	1.508	1.273
x1 = 0.5048	2.571	–	–
x1 = 0.5537	–	2.424	1.967
x1 = 0.5971	3.829	–	–
x1 = 0.6808	–	3.725	2.922
x1 = 0.7175	5.808	–	–
x1 = 0.7475	–	4.527	3.504
x1 = 0.8521	–	5.855	4.441
x1 = 0.9183	–	–	5.024

CCC(C)(C)C + CCCCCCCCCCCCCCCC
298 K, 101.33 kPa
Conditions	viscosity [mPa·s]
x1 = 0.1107	2.735
x1 = 0.2098	2.405
x1 = 0.3108	2.071
x1 = 0.4014	1.788
x1 = 0.5013	1.486
x1 = 0.6057	1.211
x1 = 0.7048	0.9511
x1 = 0.8022	0.711
x1 = 0.9014	0.5046

CCCCN + CCCCOC(C)=O
303.15 K, 101 kPa
Conditions	viscosity [mPa·s]
x1 = 0.21	0.6407
x1 = 0.2909	0.637
x1 = 0.4108	0.6349
x1 = 0.5598	0.6248
x1 = 0.64	0.6218
x1 = 0.7026	0.6038
x1 = 0.8413	0.5869
x1 = 0.9148	0.5794
